Residues, ends and D or L forms follow the SMILES beside them.
Experiments:
Type in all cases: cell-based, human
A549 cells = assay: Autophagy activity assay; conditions: A549, 200 µM, 24 h; autophagosome/autophagolysosome signal normalised to nuclear signal; three biological replicates
Procedure: A549 cells (1 × 10^4 cells/well in a 96‐well plate) were treated with 200 µM ALA‐A2. Treated cells were maintained for 24 h before determining autophagy activity using an autophagy assay kit (ab139484, Abcam, Milpitas, CA). To prepare for the staining, the media was removed, and the cells were washed once with 1× assay buffer. The dual color detection solution was added to the wells and incubated for 30 min. The cells were washed and 1× assay buffer added to each well. The nuclear signal was excitation of 340 nm and […], whereas autophagosomes and autophagolysosomes were detected by excitation of 480 nm and emission of 530 nm. Autophagy activity was calculated by normalizing the autophagosome/autophagolysosome signal to the nuclear signal. Rapamycin (2 µM), a known autophagy inducer, was the positive control.^[ [33] ^] This experiment was performed in three biological replicates.

K562 leukemia cells = assay: In vitro cancer cytotoxicity (MTT assay); conditions: K562, peptide 200 µM, 24 h
Procedure: (§1) All cell lines were obtained from the American Type Culture Collection (ATCC, Manassas, VA, USA). The A549 lung adenocarcinoma (ATCC CCL‐185TM), MDA‐MB‐231 triple‐negative breast adenocarcinoma (ATCC HTB‐26TM), and SH‐SY5Y neuroblastoma (ATCC CRL‐2266TM) cell lines were cultured in Dulbecco's Modified Eagle's Medium (DMEM)‐high glucose (Gibco, Thermo Fisher Scientific, MA, USA). HT29 colon adenocarcinoma (ATCC HTB‐38) cell lines were maintained in DMEM/Nutrient Mixture F‐12 (Gibco). K562 chronic myeloid leukemia (ATCC CRL‐3344) were grown in Roswell Park Memorial Institute Medium 1640 (Gibco). The cells were cultured in medium supplemented with 10% fetal bovine serum (Gibco) and 1× penicillin/streptomycin (Gibco) and incubated in a 5% CO2 incubator with saturated humidity.
(§2) The protocol previously described by Chiangjong et al. and Baindara et al.^[ [5], [29] ^] was modified for use in determining the cytotoxicity of peptides on the various cancer types. Adherent cells were seeded at 1 × 10^4 cells/well into a 96‐well plate 24 h prior to replacing the media containing the peptide of interest. Suspended cells were seeded at 1 × 10^4 cells/well in the media containing the peptide of interest. Five human cell lines, including lung cancer (A549), colon cancer (HT29), breast cancer (MDA‐MB‐231), neuroblastoma (SH‐SY5Y), and leukemia (K562) cells, were treated with the culture media containing the peptides at 200 µM for 24 h. Cell viability was then determined using Cell Proliferation Kit I, MTT (Roche Diagnostics GmbH, Mannheim, Germany): MTT labeling reagent (10 µL) was added to each well and incubated at 37 °C in a 5% CO2 atmosphere for 4 h. After incubation, 100 µL solubilizing solution was added to each well and incubated at 37 °C in 5% CO2 overnight. The absorbance at 570 nm (A 570) was measured for each well. The percentage of cell viability was calculated as: (1) % Cell Viability=[A570 of treated cells − A570 of media/A570 of untreated cells−A570 of media] × 100

[1] = tested on: MDA‐MB‐231 breast cancer cells; assay: In vitro cancer cytotoxicity (MTT assay); conditions: MDA‐MB‐231, peptide 200 µM, 24 h
Procedure: as §1, §2

[2] = tested on: SH‐SY5Y neuroblastoma cells; assay: In vitro cancer cytotoxicity (MTT assay); conditions: peptide 200 µM, 24 h
Procedure: as §1, §2

[3] = tested on: HT29 colon adenocarcinoma cells; assay: In vitro cancer cytotoxicity (MTT assay); conditions: 24 h
Procedure: as §1, §2
(§3) To evaluate dose‐dependency, ≈1 × 10^4 cells/well were cultured in media containing ALA‐A2 at 0, 6.25, 12.5, 25, 50, 100, 200, and 400 µM in a 96‐well plate for 24 h. Cell viability was determined by the MTT assay, as above.

[4] = tested on: A549 lung adenocarcinoma cells; assay: In vitro cancer cytotoxicity (MTT assay); conditions: 24 h
Procedure: as §1, §2, §3

CC(C)C[C@H](NC(=O)[C@@H](N)CCCCN)C(=O)N[C@@H](Cc1c[nH]c2ccccc12)C(=O)N[C@@H](CS)C(=O)N[C@@H](CCCCN)C(=O)N[C@@H](CO)C(=O)N[C@@H](CO)C(=O)N[C@@H](CCC(N)=O)C(=O)N[C@H](C(=O)N1CCC[C@H]1C(=O)N[C@@H](CCC(N)=O)C(=O)N[C@@H](CO)C(=O)N[C@@H](CCCNC(=N)N)C(=O)O)C(C)C [ALA‐A2] (H-KLWCKSSQVPQSR-OH)
autophagic activity (A549 cells): 1.5 fold of untreated cells
anticancer effect (in words) (K562 leukemia cells): did not affect
anticancer effect (in words) [1]: did not affect
anticancer effect (in words) [2]: did not affect
cell viability ([3]; HT29, peptide 200 µM, 37 °C, A570, mean ± SD, three biological replicates): 55.3 ± 2.7 % cell viability
IC50 ([3]; HT29, twofold serial dilutions 0 to 400 µM, extrapolated beyond the tested range): > 1000 µM
cell viability ([4]; A549, peptide 200 µM, 37 °C, A570, mean ± SD, three biological replicates): 59.7 ± 1.1 % cell viability
IC50 ([4]; A549, twofold serial dilutions 0 to 400 µM): ~300 µM

Source: PMC10000267, “ALA‐A2 Is a Novel Anticancer Peptide Inspired by Alpha‐Lactalbumin: A Discovery from a Computational Peptide Library, In Silico Anticancer Peptide Screening and In Vitro Experimental Validation” (Global Challenges, 2023)
